# Biological target: T1, Human CB1 receptor (Homo sapiens, UniProt P21554)
# T1 construct: host or cells: CHO cells (hCB1/CHO#C3), membrane fraction prepared in house
# Assay: Human CB1 receptor binding assay ([3H]-CP55940 displacement, hCB1/CHO membrane fraction)
# Conditions: human CB1 receptor membrane preparation, 30° C. for 90 minutes
# Protocol: Human Cb1 Receptor Binding Assay
# (1) Preparation of Human Cb1 Receptor (Membrane Fraction):
# Human CB1-expressing cell line: hCB1/CHO#C3 (Euroscreen)
# Buffer A: 50 mM tris-HCl (pH 7.5) containing ethylenediaminetetraacetic acid (2.5 mM), MgCl2 (5 mM) and sucrose (200 mM)
# The receptor-expressing cells cultivated in the above medium were washed with phosphate buffer (×2) and thereto was added Buffer A (2 mL) under ice-cooling or 4° C. (the following procedures were also carried out at the same temperature). The cells were collected by using a cell-scraper, treated by a microtip-type ultrasonicator for 20 seconds (pulse-on: 2 sec, pulse-off: 1 sec) and centrifuged (500×g, 15 min). The supernatant was separated and centrifuged (43000×g, 60 min). The resultant pellet was suspended in Buffer A and homogenized with a potter-type homogenizer. To the homogenate was added an equal volume of 80% glycerol and stored at −80° C.
# (2) Procedure of Cb1 Receptor Binding Assay:
# Buffer B: 50 mM tris-HCl (pH 7.5) containing ethylenediaminetetraacetic acid (2.5 mM), MgCl2 (5 mM) and bovine serum albumine (2 mg/mL, fatty acid-free, SIGMA-A7030)
# Buffer C: 50 mM tris-HCl (pH 7.5) containing ethylenediaminetetraacetic acid (2.5 mM), MgCl2 (5 mM) and bovine serum albumine (2 mg/mL, SIGMA-A7906)
# Coating solution: 0.3% ethyleneimine polymer
# Radioligand: [^3H]-CP55940 (30 nM/7992 dpm/mL) prepared by diluting 8.3 μM solution of the radioligand with Buffer B
# Each well of the assay plate (96-well, Costar Code#3371) was filled with Buffer B (140 μL), a solution of each test compound in dimethylsulfoxide (20 μL, final concentration: […]), radioligand (20 μL) and membrane preparation (20 μL, 0.5 μg/20 μL) and the mixture was incubated at 30° C. for 90 minutes to proceed the binding reaction. The reaction mixture was harvested to each well of a plate presoaked with the above coating solution (Packard Unifilter GF/B, #6005177). The plate was washed with Buffer C (200 μL×10) and dried at 50° C. for 1 hour and Microscinti 40 (40 μL) was added to each well. The bound radiolabel was quantitated by scintillation counting (Top Count NXT, Packard). IC50 value of each test compound against the radioligand-binding to CB1 receptors was calculated on the basis of the quantitated radiolabel activity by using Graphpad Prism 3.02.
# T1 sequence (P21554 whole entry): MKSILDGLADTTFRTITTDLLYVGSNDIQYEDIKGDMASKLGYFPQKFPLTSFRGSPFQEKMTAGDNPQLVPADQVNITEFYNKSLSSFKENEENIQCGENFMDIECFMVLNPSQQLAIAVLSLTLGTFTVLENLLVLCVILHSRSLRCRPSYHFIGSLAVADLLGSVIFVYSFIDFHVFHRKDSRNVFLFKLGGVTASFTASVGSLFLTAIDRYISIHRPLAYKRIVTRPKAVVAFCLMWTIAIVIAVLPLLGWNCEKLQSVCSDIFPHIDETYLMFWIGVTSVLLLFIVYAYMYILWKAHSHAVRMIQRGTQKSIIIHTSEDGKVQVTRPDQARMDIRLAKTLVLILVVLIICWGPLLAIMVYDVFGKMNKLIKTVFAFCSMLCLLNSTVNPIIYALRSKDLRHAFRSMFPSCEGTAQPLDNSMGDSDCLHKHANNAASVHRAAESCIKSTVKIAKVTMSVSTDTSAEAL
row,SMILES,IC50 (nM)
1,O=C(NC1CCCCC1)c1cnn2c(-c3ccc(Cl)cc3)c(-c3ccccc3Cl)cnc12 [Example 10],+ +
2,"Cc1nn2c(-c3ccc(C(F)(F)F)cc3)c(-c3ccccc3Cl)cnc2c1S(=O)(=O)N1CCCC1 [Example 238, 6-(2-chlorophenyl)-7-(4-trifluoromethylphenyl)-2-methyl-3-(1-pyrrolidinyl)sulfonylpyrazolo[1,5-a]pyrimidine]",+ +
3,N#Cc1ccccc1-c1cnc2c(C(=O)NN3CCCCCC3)cnn2c1-c1ccc(Cl)cc1 [Example 252],+ +
4,Cc1nn2c(-c3ccc(Cl)s3)c(-c3ccccc3Cl)cnc2c1C(=O)NN(C)c1ccccn1 [Example 410],+ +
5,Cc1nn2c(-c3ccc(Cl)cc3F)c(-c3ccccc3C#N)cnc2c1C(=O)NN1CCCC1 [Example 427],+ +
6,Cc1nn2c(-c3ccc(Cl)cc3)c(-c3ccccc3Cl)cnc2c1C(=O)CN1CCS(=O)(=O)CC1 [Example 462],+ +

# Other lines, results leading:
row,IC50 (nM),SMILES
1,+ +,Cc1nn2c(-c3ccc(Cl)cc3)c(-c3ccccc3Cl)cnc2c1C(=O)N[C@H]1CCS(=O)(=O)C1 [Example 185]
2,+ +,CC(=O)Nc1nn2c(-c3ccc(Cl)cc3)c(-c3ccccc3Cl)cnc2c1C(=O)NC1CCS(=O)(=O)C1 (stereo not shown) [Example 224]
3,+ + +,CN(NC(=O)c1cnn2c(-c3ccc(Cl)cc3)c(-c3ccccc3C#N)cnc12)c1cccc(Cl)c1 [Example 253]
4,+ +,CC(C)CNC(=O)c1cnn2c(-c3ccc(C(F)(F)F)cc3)c(-c3ccccc3Cl)cnc12 [Example 287]
5,+ + +,CN(NC(=O)c1c(C(F)(F)F)nn2c(-c3ccc(Cl)cc3)c(-c3ccccc3Cl)cnc12)c1ccccn1 [Example 309]
6,+ +,O=C(NC1CSC1)c1cnn2c(-c3ccc(Cl)cc3)c(-c3ccccc3Cl)cnc12 [Example 324]
7,+ + +,CN(NC(=O)c1c(N(C)S(C)(=O)=O)nn2c(-c3ccc(Cl)cc3)c(-c3ccccc3Cl)cnc12)c1ccccn1 [Example 452]

# From patent US8188097B2, “Pyrazolo[1,5-A]pyrimidine compounds” (Mitsubishi Tanabe Pharma Corporation, priority 2005, dated 2012)
